From PubChem BioAssay (NCI)
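1) Cells in 96-well plates. 2) Compound, 48 h, 5 concentrations. 3) Linear interpolation between surrounding doses. 4) Unreached endpoint = highest concentration. Definition used: TGI = concentration required for complete inhibition of growth.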

Key:
Assay in all cases: growth of human tumour cells (NCI), 48 h
HOP-62 NSCLC = test system: HOP-62 NSCLC
UACC-257 melanoma = test system: UACC-257 melanoma
M19-MEL melanoma = test system: M19-MEL melanoma
NCI-H522 lung = test system: NCI-H522 lung
DLD-1 colon = test system: DLD-1 colon
HL-60(TB) leukemia = test system: HL-60(TB) leukemia
KM20L2 colon = test system: KM20L2 colon
KM12 colon = test system: KM12 colon
NCI-H460 lung = test system: NCI-H460 lung
RXF 393 renal = test system: RXF 393 renal
DMS 114 small cell lung = test system: DMS 114 small cell lung
MOLT-4 leukemia = test system: MOLT-4 leukemia
COLO 205 colon = test system: COLO 205 colon
U251 CNS = test system: U251 CNS
HOP-18 NSCLC = test system: HOP-18 NSCLC
CCRF-CEM leukemia = test system: CCRF-CEM leukemia
SK-MEL-28 melanoma = test system: SK-MEL-28 melanoma
SF-539 CNS = test system: SF-539 CNS
SW-620 colon = test system: SW-620 colon
HOP-92 NSCLC = test system: HOP-92 NSCLC
SK-OV-3 ovarian = test system: SK-OV-3 ovarian
A549 NSCLC = test system: A549 NSCLC
HCT-15 colon = test system: HCT-15 colon
SK-MEL-5 melanoma = test system: SK-MEL-5 melanoma
SNB-19 CNS = test system: SNB-19 CNS
RXF-631 renal = test system: RXF-631 renal
UO-31 renal = test system: UO-31 renal
786-0 renal = test system: 786-0 renal
DMS 273 small cell lung = test system: DMS 273 small cell lung
TK-10 renal = test system: TK-10 renal
OVCAR-4 ovarian = test system: OVCAR-4 ovarian
SN12C renal = test system: SN12C renal
SF-295 CNS = test system: SF-295 CNS
LXFL 529 NSCLC = test system: LXFL 529 NSCLC
SNB-75 CNS = test system: SNB-75 CNS
CAKI-1 renal = test system: CAKI-1 renal
XF 498 CNS = test system: XF 498 CNS
SF-268 CNS = test system: SF-268 CNS
ACHN renal = test system: ACHN renal
SR leukemia = test system: SR leukemia
HT29 colon = test system: HT29 colon
IGROV1 ovarian = test system: IGROV1 ovarian
OVCAR-8 ovarian = test system: OVCAR-8 ovarian
EKVX NSCLC = test system: EKVX NSCLC
UACC-62 melanoma = test system: UACC-62 melanoma
K-562 leukemia = test system: K-562 leukemia
OVCAR-3 ovarian = test system: OVCAR-3 ovarian
MALME-3M melanoma = test system: MALME-3M melanoma
SK-MEL-2 melanoma = test system: SK-MEL-2 melanoma
NCI-H226 lung = test system: NCI-H226 lung
M14 melanoma = test system: M14 melanoma
RPMI-8226 leukemia = test system: RPMI-8226 leukemia
HCT-116 colon = test system: HCT-116 colon
NCI-H23 lung = test system: NCI-H23 lung
HCC-2998 colon = test system: HCC-2998 colon
OVCAR-5 ovarian = test system: OVCAR-5 ovarian
A498 renal = test system: A498 renal
LOX IMVI melanoma = test system: LOX IMVI melanoma
SNB-78 CNS = test system: SNB-78 CNS

SMILES: CC(C)C1=CC(=O)C(C)(C2=NC(C)(C)CO2)c2ccccc21 (centres undefined)
- TGI (HOP-62 NSCLC): > 100 µM
- TGI (UACC-257 melanoma): > 100 µM
- TGI (M19-MEL melanoma): > 100 µM
- TGI (NCI-H522 lung): > 100 µM
- TGI (DLD-1 colon): > 100 µM
- TGI (HL-60(TB) leukemia): > 100 µM
- TGI (KM20L2 colon): > 100 µM
- TGI (KM12 colon): > 100 µM
- TGI (NCI-H460 lung): > 100 µM
- TGI (RXF 393 renal): > 100 µM
- TGI (DMS 114 small cell lung): > 100 µM
- TGI (MOLT-4 leukemia): > 100 µM
- TGI (COLO 205 colon): > 100 µM
- TGI (U251 CNS): > 100 µM
- TGI (HOP-18 NSCLC): > 100 µM
- TGI (CCRF-CEM leukemia): > 100 µM
- TGI (SK-MEL-28 melanoma): > 100 µM
- TGI (SF-539 CNS): > 100 µM
- TGI (SW-620 colon): > 100 µM
- TGI (HOP-92 NSCLC): > 100 µM
- TGI (SK-OV-3 ovarian): > 100 µM
- TGI (A549 NSCLC): > 100 µM
- TGI (HCT-15 colon): > 100 µM
- TGI (SK-MEL-5 melanoma): > 100 µM
- TGI (SNB-19 CNS): > 100 µM
- TGI (RXF-631 renal): > 100 µM
- TGI (UO-31 renal): > 100 µM
- TGI (786-0 renal): > 100 µM
- TGI (DMS 273 small cell lung): > 100 µM
- TGI (TK-10 renal): > 100 µM
- TGI (OVCAR-4 ovarian): > 100 µM
- TGI (SN12C renal): > 100 µM
- TGI (SF-295 CNS): > 100 µM
- TGI (LXFL 529 NSCLC): > 100 µM
- TGI (SNB-75 CNS): > 100 µM
- TGI (CAKI-1 renal): > 100 µM
- TGI (XF 498 CNS): > 100 µM
- TGI (SF-268 CNS): > 100 µM
- TGI (ACHN renal): > 100 µM
- TGI (SR leukemia): > 100 µM
- TGI (HT29 colon): > 100 µM
- TGI (IGROV1 ovarian): > 100 µM
- TGI (OVCAR-8 ovarian): > 100 µM
- TGI (EKVX NSCLC): > 100 µM
- TGI (UACC-62 melanoma): > 100 µM
- TGI (K-562 leukemia): > 100 µM
- TGI (OVCAR-3 ovarian): > 100 µM
- TGI (MALME-3M melanoma): > 100 µM
- TGI (SK-MEL-2 melanoma): > 100 µM
- TGI (NCI-H226 lung): > 100 µM
- TGI (M14 melanoma): > 100 µM
- TGI (RPMI-8226 leukemia): > 100 µM
- TGI (HCT-116 colon): > 100 µM
- TGI (NCI-H23 lung): > 100 µM

SMILES: O=C1OC(c2ccccc2)(c2ccccc2)CC1CN1CCOCC1 (centres undefined)
- TGI (HOP-62 NSCLC): > 100 µM
- TGI (UACC-257 melanoma): 20.9 µM
- TGI (M19-MEL melanoma): 31 µM
- TGI (NCI-H522 lung): 22.8 µM
- TGI (DLD-1 colon): 31.8 µM
- TGI (HL-60(TB) leukemia): 28.3 µM
- TGI (KM20L2 colon): 36.6 µM
- TGI (KM12 colon): 30.8 µM
- TGI (NCI-H460 lung): > 100 µM
- TGI (DMS 114 small cell lung): 32.6 µM
- TGI (MOLT-4 leukemia): 65.4 µM
- TGI (COLO 205 colon): 18.4 µM
- TGI (U251 CNS): 49.7 µM
- TGI (HOP-18 NSCLC): 27.7 µM
- TGI (CCRF-CEM leukemia): 9.44 µM
- TGI (SK-MEL-28 melanoma): 32.9 µM
- TGI (SF-539 CNS): 32.6 µM
- TGI (SW-620 colon): 18 µM
- TGI (SK-OV-3 ovarian): 60.6 µM
- TGI (A549 NSCLC): 24.5 µM
- TGI (HCT-15 colon): 29.6 µM
- TGI (HCC-2998 colon): 31.4 µM
- TGI (SK-MEL-5 melanoma): > 100 µM
- TGI (OVCAR-5 ovarian): 67.5 µM
- TGI (SNB-19 CNS): > 100 µM
- TGI (RXF-631 renal): 43.8 µM
- TGI (UO-31 renal): 99.4 µM
- TGI (786-0 renal): 30.4 µM
- TGI (DMS 273 small cell lung): > 100 µM
- TGI (TK-10 renal): 31.6 µM
- TGI (OVCAR-4 ovarian): 40.9 µM
- TGI (SN12C renal): 25.1 µM
- TGI (LXFL 529 NSCLC): 26.9 µM
- TGI (SNB-75 CNS): 49.1 µM
- TGI (SF-268 CNS): 84 µM
- TGI (ACHN renal): 32 µM
- TGI (SR leukemia): 8.43 µM
- TGI (HT29 colon): 15.1 µM
- TGI (IGROV1 ovarian): > 100 µM
- TGI (OVCAR-8 ovarian): > 100 µM
- TGI (A498 renal): > 100 µM
- TGI (LOX IMVI melanoma): 28 µM
- TGI (EKVX NSCLC): > 100 µM
- TGI (UACC-62 melanoma): > 100 µM
- TGI (K-562 leukemia): 78.7 µM
- TGI (OVCAR-3 ovarian): 28.9 µM
- TGI (MALME-3M melanoma): 26.6 µM
- TGI (SK-MEL-2 melanoma): 36.5 µM
- TGI (M14 melanoma): 31.4 µM
- TGI (HCT-116 colon): 25.3 µM
- TGI (NCI-H23 lung): 43.9 µM

SMILES: Cn1cc(C(=O)/C(Cl)=C(\Cl)C(=O)O)c2ccccc21
- TGI (HOP-62 NSCLC): > 100 µM
- TGI (UACC-257 melanoma): > 100 µM
- TGI (M19-MEL melanoma): > 100 µM
- TGI (DLD-1 colon): > 100 µM
- TGI (HL-60(TB) leukemia): > 100 µM
- TGI (KM20L2 colon): > 100 µM
- TGI (KM12 colon): > 100 µM
- TGI (NCI-H460 lung): > 100 µM
- TGI (RXF 393 renal): > 100 µM
- TGI (DMS 114 small cell lung): > 100 µM
- TGI (MOLT-4 leukemia): > 100 µM
- TGI (U251 CNS): > 100 µM
- TGI (CCRF-CEM leukemia): > 100 µM
- TGI (SK-MEL-28 melanoma): > 100 µM
- TGI (SF-539 CNS): > 100 µM
- TGI (SW-620 colon): > 100 µM
- TGI (SK-OV-3 ovarian): > 100 µM
- TGI (A549 NSCLC): > 100 µM
- TGI (HCT-15 colon): > 100 µM
- TGI (HCC-2998 colon): > 100 µM
- TGI (SK-MEL-5 melanoma): > 100 µM
- TGI (OVCAR-5 ovarian): > 100 µM
- TGI (RXF-631 renal): > 100 µM
- TGI (UO-31 renal): > 100 µM
- TGI (786-0 renal): > 100 µM
- TGI (DMS 273 small cell lung): > 100 µM
- TGI (TK-10 renal): > 100 µM
- TGI (OVCAR-4 ovarian): > 100 µM
- TGI (SF-295 CNS): > 100 µM
- TGI (SNB-75 CNS): > 100 µM
- TGI (CAKI-1 renal): > 100 µM
- TGI (XF 498 CNS): > 100 µM
- TGI (ACHN renal): > 100 µM
- TGI (HT29 colon): > 100 µM
- TGI (IGROV1 ovarian): > 100 µM
- TGI (OVCAR-8 ovarian): > 100 µM
- TGI (A498 renal): > 100 µM
- TGI (EKVX NSCLC): > 100 µM
- TGI (UACC-62 melanoma): > 100 µM
- TGI (K-562 leukemia): > 100 µM
- TGI (OVCAR-3 ovarian): > 100 µM
- TGI (MALME-3M melanoma): > 100 µM
- TGI (SK-MEL-2 melanoma): > 100 µM
- TGI (NCI-H226 lung): > 100 µM
- TGI (M14 melanoma): > 100 µM
- TGI (SNB-78 CNS): > 100 µM
- TGI (RPMI-8226 leukemia): > 100 µM
- TGI (HCT-116 colon): > 100 µM
- TGI (NCI-H23 lung): > 100 µM
